From ChEMBL document CHEMBL3217456 (Medchemcomm, 2014)
Active and inactive are the calls of the source. The calls are words filed in the database; no cut-off is given here.

Legend:
Histamine H4 receptor [1] = target: T1, Histamine H4 receptor (Homo sapiens, UniProt Q9H3N8); assay: (§1) Antagonist activity at human recombinant histamine H4 receptor-RGS19 fusion protein expressed in Sf9 cells coexpressing Galphai2,Gbeta1gamma2 assessed as inhibition of histamine-induced […] hydrolysis preincubated for 2 mins before [gamma32P]GTP addition measured after 20 mins by steady-state GTPase activity assay; type: functional
Histamine H3 receptor [2] = target: T2, Histamine H3 receptor (Homo sapiens, UniProt Q9Y5N1); assay: as §1, with “H3 receptor” for “H4 receptor-RGS19 fusion protein”, “Galphai2,Gbeta1gamma2 and RGS4” for “Galphai2,Gbeta1gamma2”; type: functional
Histamine H2 receptor [3] = target: T3, Histamine H2 receptor (Homo sapiens, UniProt P25021); assay: Antagonist activity at human recombinant histamine H2 receptor-Gsalphas fusion protein expressed in Sf9 cells assessed as inhibition of histamine-induced […] hydrolysis preincubated for 2 mins before [gamma32P]GTP addition measured after 20 mins by steady-state GTPase activity assay; type: functional
Histamine H3 receptor [4] = target: T2, Histamine H3 receptor; assay: Intrinsic activity at human recombinant histamine H3 receptor expressed in Sf9 cells coexpressing Galphai2,Gbeta1gamma2 and RGS4 preincubated for 2 mins before [gamma32P]GTP addition measured after 20 mins by steady-state GTPase activity assay relative to histamine
Histamine H2 receptor [5] = target: T3, Histamine H2 receptor; assay: Intrinsic activity at human recombinant histamine H2 receptor-Gsalphas fusion protein expressed in Sf9 cells preincubated for 2 mins before [gamma32P]GTP addition measured after 20 mins by steady-state GTPase activity assay relative to histamine
Histamine H2 receptor [6] = target: T3, Histamine H2 receptor; assay: Antagonist activity at human recombinant histamine H2 receptor-Gsalphas fusion protein expressed in Sf9 cells assessed as inhibition of histamine-induced [35S]GTPgammaS binding after 90 mins by liquid scintillation counting; type: functional
Histamine H2 receptor [7] = target: T3, Histamine H2 receptor; assay: Intrinsic activity at human recombinant histamine H2 receptor-Gsalphas fusion protein expressed in Sf9 cells assessed as [35S]GTPgammaS binding at 10 uM after 90 mins by liquid scintillation counting relative to histamine; type: functional
Histamine H4 receptor [8] = target: T1, Histamine H4 receptor; assay: Agonist activity at human recombinant histamine H4 receptor-RGS19 fusion protein expressed in Sf9 cells coexpressing Galphai2,Gbeta1gamma2 assessed as [35S]GTPgammaS binding after 90 mins by liquid scintillation counting; type: functional
Histamine H3 receptor [9] = target: T2, Histamine H3 receptor; assay: Agonist activity at human recombinant histamine H3 receptor expressed in Sf9 cells coexpressing Galphai2,Gbeta1gamma2 and RGS4 assessed as [35S]GTPgammaS binding after 90 mins by liquid scintillation counting; type: functional
[10] = target: Histamine H1 receptor (Homo sapiens) (UniProt P35367); assay: Antagonist activity at human recombinant histamine H1 receptor expressed in Sf9 cells coexpressing RGS4 assessed as inhibition of histamine-induced […] hydrolysis preincubated for 2 mins before [gamma32P]GTP addition measured after 20 mins by steady-state GTPase activity assay; type: functional
[11] = target: Histamine H1 receptor (Homo sapiens) (UniProt P35367); assay: Intrinsic activity at human recombinant histamine H1 receptor expressed in Sf9 cells coexpressing RGS4 preincubated for 2 mins before [gamma32P]GTP addition measured after 20 mins by steady-state GTPase activity assay relative to histamine
[12] = target: Histamine H1 receptor (Homo sapiens) (UniProt P35367); settings: Sf9
Histamine H4 receptor [13] = target: T1, Histamine H4 receptor; assay: Antagonist activity at human recombinant histamine H4 receptor-RGS19 fusion protein expressed in Sf9 cells coexpressing Galphai2,Gbeta1gamma2 assessed as inhibition of histamine-induced [35S]GTPgammaS binding after 90 mins by liquid scintillation counting; type: functional
Histamine H3 receptor [14] = target: T2, Histamine H3 receptor; assay: Antagonist activity at human recombinant histamine H3 receptor expressed in Sf9 cells coexpressing Galphai2,Gbeta1gamma2 and RGS4 assessed as inhibition of histamine-induced [35S]GTPgammaS binding after 90 mins by liquid scintillation counting; type: functional
Histamine H4 receptor [15] = target: T1, Histamine H4 receptor; assay: Intrinsic activity at human recombinant histamine H4 receptor-RGS19 fusion protein expressed in Sf9 cells coexpressing Galphai2,Gbeta1gamma2 assessed as [35S]GTPgammaS binding at 10 uM after 90 mins by liquid scintillation counting relative to histamine; type: functional
Histamine H3 receptor [16] = target: T2, Histamine H3 receptor; assay: Intrinsic activity at human recombinant histamine H3 receptor expressed in Sf9 cells coexpressing Galphai2,Gbeta1gamma2 and RGS4 assessed as [35S]GTPgammaS binding at 10 uM after 90 mins by liquid scintillation counting relative to histamine; type: functional
Histamine H4 receptor [17] = target: T1, Histamine H4 receptor; assay: Intrinsic activity at human recombinant histamine H4 receptor-RGS19 fusion protein expressed in Sf9 cells coexpressing Galphai2,Gbeta1gamma2 preincubated for 2 mins before [gamma32P]GTP addition measured after 20 mins by steady-state GTPase activity assay relative to histamine

Chain of Histamine H1 receptor (Homo sapiens) (P35367 whole entry, the tested form may be a part): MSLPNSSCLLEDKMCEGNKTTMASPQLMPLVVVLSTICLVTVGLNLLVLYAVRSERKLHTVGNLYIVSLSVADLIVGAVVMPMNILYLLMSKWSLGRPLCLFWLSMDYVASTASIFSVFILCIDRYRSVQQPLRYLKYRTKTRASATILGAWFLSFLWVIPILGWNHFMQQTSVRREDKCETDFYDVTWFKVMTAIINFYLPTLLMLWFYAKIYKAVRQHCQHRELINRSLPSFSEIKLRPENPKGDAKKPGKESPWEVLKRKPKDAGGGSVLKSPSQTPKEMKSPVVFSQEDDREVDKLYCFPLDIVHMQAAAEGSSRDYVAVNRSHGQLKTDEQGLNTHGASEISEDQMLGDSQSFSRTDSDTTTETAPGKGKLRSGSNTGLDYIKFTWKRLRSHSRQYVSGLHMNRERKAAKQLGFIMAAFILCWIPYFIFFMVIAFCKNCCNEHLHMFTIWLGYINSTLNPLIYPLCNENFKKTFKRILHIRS
T3 sequence (P25021 whole entry, the tested form may be a part): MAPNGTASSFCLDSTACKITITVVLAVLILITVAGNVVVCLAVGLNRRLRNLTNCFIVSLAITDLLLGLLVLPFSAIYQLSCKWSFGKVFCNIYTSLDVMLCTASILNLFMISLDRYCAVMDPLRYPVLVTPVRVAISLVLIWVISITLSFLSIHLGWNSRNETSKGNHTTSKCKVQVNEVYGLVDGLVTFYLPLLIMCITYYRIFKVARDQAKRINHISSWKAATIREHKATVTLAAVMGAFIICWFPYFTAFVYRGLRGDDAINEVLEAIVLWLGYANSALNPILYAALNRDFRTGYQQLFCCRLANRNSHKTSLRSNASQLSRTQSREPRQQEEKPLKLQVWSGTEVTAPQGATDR
T2 sequence (Q9Y5N1 whole entry, the tested form may be a part): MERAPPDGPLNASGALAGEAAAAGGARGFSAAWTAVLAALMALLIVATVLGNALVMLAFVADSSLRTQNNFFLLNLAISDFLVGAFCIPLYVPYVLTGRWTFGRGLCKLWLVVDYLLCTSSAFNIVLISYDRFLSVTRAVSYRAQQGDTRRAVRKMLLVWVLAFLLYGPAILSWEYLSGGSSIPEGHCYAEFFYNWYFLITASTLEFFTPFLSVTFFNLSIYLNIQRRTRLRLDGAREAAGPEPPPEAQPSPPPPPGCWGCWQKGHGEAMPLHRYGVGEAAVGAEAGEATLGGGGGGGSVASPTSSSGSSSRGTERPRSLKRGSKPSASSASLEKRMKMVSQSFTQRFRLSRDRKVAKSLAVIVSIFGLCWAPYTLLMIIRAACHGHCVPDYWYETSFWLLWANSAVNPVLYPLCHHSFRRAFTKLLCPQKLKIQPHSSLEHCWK
T1 sequence (Q9H3N8 whole entry, the tested form may be a part): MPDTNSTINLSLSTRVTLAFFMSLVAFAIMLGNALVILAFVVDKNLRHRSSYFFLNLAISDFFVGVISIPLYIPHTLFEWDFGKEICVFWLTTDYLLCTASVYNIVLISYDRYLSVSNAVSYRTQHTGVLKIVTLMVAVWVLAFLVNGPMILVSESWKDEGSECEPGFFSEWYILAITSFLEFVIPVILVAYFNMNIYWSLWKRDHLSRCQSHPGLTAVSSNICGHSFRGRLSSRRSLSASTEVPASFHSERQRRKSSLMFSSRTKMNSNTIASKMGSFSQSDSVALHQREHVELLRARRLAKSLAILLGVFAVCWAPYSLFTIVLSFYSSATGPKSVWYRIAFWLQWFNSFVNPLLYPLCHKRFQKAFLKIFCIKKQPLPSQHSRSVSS

Structure (SMILES)	pKb (Histamine H2 receptor [6])	Intrinsic activity (Histamine H2 receptor [7])	pEC50 (Histamine H4 receptor [8])	pKb [10]	Intrinsic activity [11]	pKb (Histamine H3 receptor [14])	Intrinsic activity (Histamine H3 receptor [16])	also measured
CN(C)Cc1ccc(CCCN/C(N)=N/C(=O)CC(c2ccccc2)c2nccs2)o1 (stereo not given)								pKb (Histamine H4 receptor [1]): < 5; pKb (Histamine H3 receptor [2]): 5.51; pKb (Histamine H2 receptor [3]): 6.13; Intrinsic activity (Histamine H3 receptor [4]): -0.62; Intrinsic activity (Histamine H2 receptor [5]): -0.13
N#C/N=C(\NCCCCc1nc(N)n[nH]1)NCCSc1ccccc1	< 5	0.03	inactive	< 5	0.01			pEC50 (Histamine H3 receptor [9]): inactive
N#C/N=C(/NCCCCNc1nc(N)n[nH]1)NCCSc1ccccc1	< 5	-0.09	inactive					pEC50 (Histamine H3 receptor [9]): inactive; pEC50 [12]: inactive
N#C/N=C(\NCCNc1ccnc(N)n1)NCCSc1ccccc1	< 5	-0.07		< 5	-0.02	5.54	-1.03	pKb (Histamine H4 receptor [13]): 5.43; Intrinsic activity (Histamine H4 receptor [15]): -0.83
N#C/N=C(\NCCCNc1nc(N)n[nH]1)NCCSc1ccccc1	< 5	-0.01	inactive					pEC50 (Histamine H3 receptor [9]): inactive; pEC50 [12]: inactive
N#C/N=C(/NCCCCc1c[nH]cn1)NCCSc1ccccc1					7%	6.14	-0.52	Intrinsic activity (Histamine H4 receptor [15]): 0.88; EC50 (Histamine H4 receptor [8]): 37.2 nM
N#C/N=C(/NCCCCNc1ccccn1)NCCSc1ccccc1	< 5	-0.13		< 5	-0.01	< 5	-0.36	pKb (Histamine H4 receptor [13]): < 5; Intrinsic activity (Histamine H4 receptor [15]): -0.34
N#C/N=C(/NCCNc1nccc(N)n1)NCCSc1ccccc1	< 5	-0.08	inactive	< 5	0.01	< 5	-1.43	
N#C/N=C(/NCCCSc1nc(N)n[nH]1)NCCSc1ccccc1	< 5	-0.05	inactive					pEC50 (Histamine H3 receptor [9]): inactive; pEC50 [12]: inactive
N#C/N=C(/NCCCNc1nccc(N)n1)NCCSc1ccccc1	< 5	-0.11		< 5	0.01	5.14	-0.71	pKb (Histamine H4 receptor [13]): < 5; Intrinsic activity (Histamine H4 receptor [15]): -0.09
CN(C)Cc1ccc(CCCN/C(N)=N/C(=O)CC(c2ccccc2)c2ccccc2)o1				5.11	-0.02			pKb (Histamine H4 receptor [1]): < 5; pKb (Histamine H3 receptor [2]): 5.89; pKb (Histamine H2 receptor [3]): 7.03; Intrinsic activity (Histamine H4 receptor [17]): -0.16; Intrinsic activity (Histamine H3 receptor [4]): -0.65; Intrinsic activity (Histamine H2 receptor [5]): -0.16
N/C(=N\C(=O)CC(c1ccccc1)c1ccccc1)NCCCc1ccccc1				5.26	-0.01			pKb (Histamine H4 receptor [1]): < 5; pKb (Histamine H3 receptor [2]): 5.1; pKb (Histamine H2 receptor [3]): 5.89; Intrinsic activity (Histamine H3 receptor [4]): -0.24; Intrinsic activity (Histamine H2 receptor [5]): -0.12
CN/C(=N/C#N)NCCCNc1nc(N)n[nH]1	< 5	-0.03	inactive					pEC50 (Histamine H3 receptor [9]): inactive; pEC50 [12]: inactive
CN/C(=N/C#N)NCCCCCn1ccnc1C	< 5	-0.07	inactive	< 5	-0.01	< 5	-0.26	Intrinsic activity (Histamine H4 receptor [15]): 0.06
N/C(=N\C(=O)CC(c1ccccc1)c1ccccc1)NCCCc1ccccn1				5.41	0.1			pKb (Histamine H4 receptor [1]): < 5; pKb (Histamine H3 receptor [2]): 5.35; pKb (Histamine H2 receptor [3]): 5.68; Intrinsic activity (Histamine H3 receptor [4]): -0.44; Intrinsic activity (Histamine H2 receptor [5]): 0
S=C(NC1CCCCC1)N1CCC(c2cnc[nH]2)CC1								Intrinsic activity (Histamine H4 receptor [17]): -0.95
N/C(=N\C(=O)CC(c1ccccc1)c1ccccc1)NCCCc1ccncc1				< 5	0.08			pKb (Histamine H4 receptor [1]): < 5; pKb (Histamine H3 receptor [2]): 5.06; pKb (Histamine H2 receptor [3]): 6.14; Intrinsic activity (Histamine H3 receptor [4]): -0.08; Intrinsic activity (Histamine H2 receptor [5]): -0.12
